According to the supplement of paper PMC10307832:

What was measured:
Assay in all cases: relative viability (nuclei count vs DMSO), 5 days (fraction); higher = more cells survive
Pemetrexed + Luminespib = compound: Nc1nc2[nH]cc(CCc3ccc(C(=O)N[C@@H](CCC(=O)O)C(=O)O)cc3)c2c(=O)[nH]1 [Pemetrexed] + CCNC(=O)c1noc(-c2cc(C(C)C)c(O)cc2O)c1-c1ccc(CN2CCOCC2)cc1 [Luminespib] (partner 0.01 µM)
Summary of the method: (§1)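 Lung cancer cell lines were pin-tool dosed in 1536-well plates on the day after seeding, with either a lone drug or a fixed anchor-drug dose plus five library-drug doses (not always all listed) in √10 steps. Nuclei were counted on 4× images after 5 days. Relative viability is the ratio of treated-well to vehicle-well nuclei counts, with each value a median of duplicate plates.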

Idelalisib + Lapatinib = compound: CC[C@H](Nc1ncnc2[nH]cnc12)c1nc2cccc(F)c2c(=O)n1-c1ccccc1 [Idelalisib] + CS(=O)(=O)CCNCc1ccc(-c2ccc3ncnc(Nc4ccc(OCc5cccc(F)c5)c(Cl)c4)c3c2)o1 [Lapatinib] (partner 2 µM)
Summary of the method: as §1

Pemetrexed + Tozasertib = compound: Nc1nc2[nH]cc(CCc3ccc(C(=O)N[C@@H](CCC(=O)O)C(=O)O)cc3)c2c(=O)[nH]1 [Pemetrexed] + Cc1cc(Nc2cc(N3CCN(C)CC3)nc(Sc3ccc(NC(=O)C4CC4)cc3)n2)n[nH]1 [Tozasertib] (partner 0.1 µM)
Summary of the method: as §1

Idelalisib + Olaparib = compound: CC[C@H](Nc1ncnc2[nH]cnc12)c1nc2cccc(F)c2c(=O)n1-c1ccccc1 [Idelalisib] + O=C(c1cc(Cc2n[nH]c(=O)c3ccccc23)ccc1F)N1CCN(C(=O)C2CC2)CC1 [Olaparib] (partner 8 µM)
Summary of the method: as §1

201T
relative viability (Pemetrexed + Luminespib; first compound 0.002 µM): 1.03 | relative viability (Pemetrexed + Luminespib; first compound 0.006325 µM): 1.04 | relative viability (Pemetrexed + Luminespib; first compound 0.02 µM): 1.05 | relative viability (Pemetrexed + Luminespib; first compound 0.06325 µM): 1.1 | relative viability (Pemetrexed + Luminespib; first compound 0.2 µM): 1.09 | relative viability (Idelalisib + Lapatinib; first compound 0.04 µM): 0.978 | relative viability (Idelalisib + Lapatinib; first compound 0.1265 µM): 1.05 | relative viability (Idelalisib + Lapatinib; first compound 0.4 µM): 1.04 | relative viability (Idelalisib + Lapatinib; first compound 1.265 µM): 1.13 | relative viability (Idelalisib + Lapatinib; first compound 4 µM): 1.02 | relative viability (Pemetrexed + Tozasertib; first compound 0.002 µM): 0.833 | relative viability (Pemetrexed + Tozasertib; first compound 0.006325 µM): 0.97 | relative viability (Pemetrexed + Tozasertib; first compound 0.02 µM): 0.971 | relative viability (Pemetrexed + Tozasertib; first compound 0.06325 µM): 0.976 | relative viability (Pemetrexed + Tozasertib; first compound 0.2 µM): 0.871 | relative viability (Idelalisib + Olaparib; first compound 0.04 µM): 0.825 | relative viability (Idelalisib + Olaparib; first compound 0.1265 µM): 0.836 | relative viability (Idelalisib + Olaparib; first compound 0.4 µM): 0.837 | relative viability (Idelalisib + Olaparib; first compound 1.265 µM): 0.821 | relative viability (Idelalisib + Olaparib; first compound 4 µM): 0.839

A549
relative viability (Idelalisib + Lapatinib; first compound 0.04 µM): 0.96 | relative viability (Idelalisib + Lapatinib; first compound 0.1265 µM): 0.996 | relative viability (Idelalisib + Lapatinib; first compound 0.4 µM): 0.924 | relative viability (Idelalisib + Lapatinib; first compound 1.265 µM): 0.923 | relative viability (Idelalisib + Lapatinib; first compound 4 µM): 0.832 | relative viability (Idelalisib + Olaparib; first compound 0.04 µM): 0.238 | relative viability (Idelalisib + Olaparib; first compound 0.1265 µM): 0.28 | relative viability (Idelalisib + Olaparib; first compound 0.4 µM): 0.236 | relative viability (Idelalisib + Olaparib; first compound 1.265 µM): 0.266 | relative viability (Idelalisib + Olaparib; first compound 4 µM): 0.361

A-427
relative viability (Pemetrexed + Luminespib; first compound 0.002 µM): 0.912 | relative viability (Pemetrexed + Luminespib; first compound 0.006325 µM): 0.923 | relative viability (Pemetrexed + Luminespib; first compound 0.02 µM): 0.968 | relative viability (Pemetrexed + Luminespib; first compound 0.06325 µM): 0.793 | relative viability (Pemetrexed + Luminespib; first compound 0.2 µM): 0.956 | relative viability (Idelalisib + Lapatinib; first compound 0.04 µM): 1.11 | relative viability (Idelalisib + Lapatinib; first compound 0.1265 µM): 1.06 | relative viability (Idelalisib + Lapatinib; first compound 0.4 µM): 1.04 | relative viability (Idelalisib + Lapatinib; first compound 1.265 µM): 1.07 | relative viability (Idelalisib + Lapatinib; first compound 4 µM): 1.04 | relative viability (Pemetrexed + Tozasertib; first compound 0.002 µM): 0.232 | relative viability (Pemetrexed + Tozasertib; first compound 0.006325 µM): 0.2 | relative viability (Pemetrexed + Tozasertib; first compound 0.02 µM): 0.213 | relative viability (Pemetrexed + Tozasertib; first compound 0.06325 µM): 0.509 | relative viability (Pemetrexed + Tozasertib; first compound 0.2 µM): 0.218 | relative viability (Idelalisib + Olaparib; first compound 0.04 µM): 0.853 | relative viability (Idelalisib + Olaparib; first compound 0.1265 µM): 0.788 | relative viability (Idelalisib + Olaparib; first compound 0.4 µM): 0.712 | relative viability (Idelalisib + Olaparib; first compound 1.265 µM): 0.785 | relative viability (Idelalisib + Olaparib; first compound 4 µM): 0.711

ABC-1
relative viability (Pemetrexed + Luminespib; first compound 0.006325 µM): 0.521 | relative viability (Pemetrexed + Luminespib; first compound 0.02 µM): 0.709 | relative viability (Pemetrexed + Luminespib; first compound 0.06325 µM): 0.777 | relative viability (Pemetrexed + Luminespib; first compound 0.2 µM): 0.637 | relative viability (Idelalisib + Lapatinib; first compound 0.04 µM): 1.11 | relative viability (Idelalisib + Lapatinib; first compound 0.1265 µM): 1.19 | relative viability (Idelalisib + Lapatinib; first compound 0.4 µM): 1.13 | relative viability (Idelalisib + Lapatinib; first compound 1.265 µM): 1.01 | relative viability (Idelalisib + Lapatinib; first compound 4 µM): 1.08 | relative viability (Pemetrexed + Tozasertib; first compound 0.002 µM): 0.163 | relative viability (Pemetrexed + Tozasertib; first compound 0.006325 µM): 0.172 | relative viability (Pemetrexed + Tozasertib; first compound 0.02 µM): 0.172 | relative viability (Pemetrexed + Tozasertib; first compound 0.06325 µM): 0.191 | relative viability (Pemetrexed + Tozasertib; first compound 0.2 µM): 0.167 | relative viability (Idelalisib + Olaparib; first compound 0.04 µM): 0.947 | relative viability (Idelalisib + Olaparib; first compound 0.1265 µM): 0.913 | relative viability (Idelalisib + Olaparib; first compound 0.4 µM): 0.78 | relative viability (Idelalisib + Olaparib; first compound 1.265 µM): 0.97 | relative viability (Idelalisib + Olaparib; first compound 4 µM): 0.68

Calu-6
relative viability (Idelalisib + Lapatinib; first compound 0.04 µM): 1.04 | relative viability (Idelalisib + Lapatinib; first compound 0.1265 µM): 1.06 | relative viability (Idelalisib + Lapatinib; first compound 0.4 µM): 1.05 | relative viability (Idelalisib + Lapatinib; first compound 1.265 µM): 1.02 | relative viability (Idelalisib + Lapatinib; first compound 4 µM): 1.06 | relative viability (Idelalisib + Olaparib; first compound 0.04 µM): 0.669 | relative viability (Idelalisib + Olaparib; first compound 0.1265 µM): 0.61 | relative viability (Idelalisib + Olaparib; first compound 0.4 µM): 0.533 | relative viability (Idelalisib + Olaparib; first compound 1.265 µM): 0.657 | relative viability (Idelalisib + Olaparib; first compound 4 µM): 0.53

ChaGo-K-1
relative viability (Pemetrexed + Luminespib; first compound 0.002 µM): 0.582 | relative viability (Pemetrexed + Luminespib; first compound 0.006325 µM): 0.577 | relative viability (Pemetrexed + Luminespib; first compound 0.02 µM): 0.608 | relative viability (Pemetrexed + Luminespib; first compound 0.06325 µM): 0.47 | relative viability (Pemetrexed + Luminespib; first compound 0.2 µM): 0.239 | relative viability (Pemetrexed + Tozasertib; first compound 0.002 µM): 0.24 | relative viability (Pemetrexed + Tozasertib; first compound 0.006325 µM): 0.218 | relative viability (Pemetrexed + Tozasertib; first compound 0.02 µM): 0.25 | relative viability (Pemetrexed + Tozasertib; first compound 0.06325 µM): 0.212 | relative viability (Pemetrexed + Tozasertib; first compound 0.2 µM): 0.176 | relative viability (Idelalisib + Olaparib; first compound 0.04 µM): 0.347 | relative viability (Idelalisib + Olaparib; first compound 0.1265 µM): 0.399 | relative viability (Idelalisib + Olaparib; first compound 0.4 µM): 0.472 | relative viability (Idelalisib + Olaparib; first compound 1.265 µM): 0.38 | relative viability (Idelalisib + Olaparib; first compound 4 µM): 0.379

EBC-1
relative viability (Idelalisib + Lapatinib; first compound 0.04 µM): 0.225 | relative viability (Idelalisib + Lapatinib; first compound 0.1265 µM): 0.198 | relative viability (Idelalisib + Lapatinib; first compound 0.4 µM): 0.233 | relative viability (Idelalisib + Lapatinib; first compound 1.265 µM): 0.239 | relative viability (Idelalisib + Lapatinib; first compound 4 µM): 0.222 | relative viability (Idelalisib + Olaparib; first compound 0.04 µM): 0.721 | relative viability (Idelalisib + Olaparib; first compound 0.1265 µM): 0.777 | relative viability (Idelalisib + Olaparib; first compound 0.4 µM): 0.763 | relative viability (Idelalisib + Olaparib; first compound 1.265 µM): 0.65 | relative viability (Idelalisib + Olaparib; first compound 4 µM): 0.588

HCC-78
relative viability (Idelalisib + Lapatinib; first compound 0.04 µM): 0.709 | relative viability (Idelalisib + Lapatinib; first compound 0.1265 µM): 0.81 | relative viability (Idelalisib + Lapatinib; first compound 0.4 µM): 0.577 | relative viability (Idelalisib + Lapatinib; first compound 1.265 µM): 0.916 | relative viability (Idelalisib + Lapatinib; first compound 4 µM): 0.754 | relative viability (Pemetrexed + Tozasertib; first compound 0.002 µM): 0.312 | relative viability (Pemetrexed + Tozasertib; first compound 0.006325 µM): 0.32 | relative viability (Pemetrexed + Tozasertib; first compound 0.02 µM): 0.378 | relative viability (Pemetrexed + Tozasertib; first compound 0.06325 µM): 0.308 | relative viability (Pemetrexed + Tozasertib; first compound 0.2 µM): 0.259 | relative viability (Idelalisib + Olaparib; first compound 0.04 µM): 0.78 | relative viability (Idelalisib + Olaparib; first compound 0.1265 µM): 0.855 | relative viability (Idelalisib + Olaparib; first compound 0.4 µM): 0.553 | relative viability (Idelalisib + Olaparib; first compound 1.265 µM): 0.781 | relative viability (Idelalisib + Olaparib; first compound 4 µM): 0.585

HCC-366
relative viability (Idelalisib + Lapatinib; first compound 0.04 µM): 1.01 | relative viability (Idelalisib + Lapatinib; first compound 0.1265 µM): 1.02 | relative viability (Idelalisib + Lapatinib; first compound 0.4 µM): 0.999 | relative viability (Idelalisib + Lapatinib; first compound 1.265 µM): 1.03 | relative viability (Idelalisib + Lapatinib; first compound 4 µM): 0.987 | relative viability (Pemetrexed + Tozasertib; first compound 0.002 µM): 0.0686 | relative viability (Pemetrexed + Tozasertib; first compound 0.006325 µM): 0.0859 | relative viability (Pemetrexed + Tozasertib; first compound 0.02 µM): 0.205 | relative viability (Pemetrexed + Tozasertib; first compound 0.06325 µM): 0.126 | relative viability (Pemetrexed + Tozasertib; first compound 0.2 µM): 0.124 | relative viability (Idelalisib + Olaparib; first compound 0.04 µM): 0.386 | relative viability (Idelalisib + Olaparib; first compound 0.1265 µM): 0.412 | relative viability (Idelalisib + Olaparib; first compound 0.4 µM): 0.348 | relative viability (Idelalisib + Olaparib; first compound 1.265 µM): 0.305 | relative viability (Idelalisib + Olaparib; first compound 4 µM): 0.315

IA-LM
relative viability (Idelalisib + Lapatinib; first compound 0.04 µM): 0.641 | relative viability (Idelalisib + Lapatinib; first compound 0.1265 µM): 0.733 | relative viability (Idelalisib + Lapatinib; first compound 0.4 µM): 0.958 | relative viability (Idelalisib + Lapatinib; first compound 1.265 µM): 1.24 | relative viability (Idelalisib + Lapatinib; first compound 4 µM): 0.816 | relative viability (Idelalisib + Olaparib; first compound 0.04 µM): 0.711 | relative viability (Idelalisib + Olaparib; first compound 0.1265 µM): 0.952 | relative viability (Idelalisib + Olaparib; first compound 0.4 µM): 0.747 | relative viability (Idelalisib + Olaparib; first compound 1.265 µM): 1.02 | relative viability (Idelalisib + Olaparib; first compound 4 µM): 0.93
